Drawing on patent US20220340875A1, “METHODS OF CULTURING AND/OR EXPANDING STEM CELLS AND/OR LINEAGE COMMITTED PROGENITOR CELLS USING AMIDO COMPOUNDS” (IDEAYA BIOSCIENCES, INC., priority 2018, published 2022), this text covers IC50 for 26 compounds.

Each structure is given as a SMILES string. Where only a bound is given, the exact number is not on record here.

The target in the assay is T1, hAhR (Homo sapiens, UniProt P35869).
T1 construct: Stably integrated DRE-luciferase cell lines were generated by transducing the both cell lines with Cignal XRE luciferase reporter (Qiagen) lentiviral particles; endogenous in cells
T1 sequence (P35869 11-848): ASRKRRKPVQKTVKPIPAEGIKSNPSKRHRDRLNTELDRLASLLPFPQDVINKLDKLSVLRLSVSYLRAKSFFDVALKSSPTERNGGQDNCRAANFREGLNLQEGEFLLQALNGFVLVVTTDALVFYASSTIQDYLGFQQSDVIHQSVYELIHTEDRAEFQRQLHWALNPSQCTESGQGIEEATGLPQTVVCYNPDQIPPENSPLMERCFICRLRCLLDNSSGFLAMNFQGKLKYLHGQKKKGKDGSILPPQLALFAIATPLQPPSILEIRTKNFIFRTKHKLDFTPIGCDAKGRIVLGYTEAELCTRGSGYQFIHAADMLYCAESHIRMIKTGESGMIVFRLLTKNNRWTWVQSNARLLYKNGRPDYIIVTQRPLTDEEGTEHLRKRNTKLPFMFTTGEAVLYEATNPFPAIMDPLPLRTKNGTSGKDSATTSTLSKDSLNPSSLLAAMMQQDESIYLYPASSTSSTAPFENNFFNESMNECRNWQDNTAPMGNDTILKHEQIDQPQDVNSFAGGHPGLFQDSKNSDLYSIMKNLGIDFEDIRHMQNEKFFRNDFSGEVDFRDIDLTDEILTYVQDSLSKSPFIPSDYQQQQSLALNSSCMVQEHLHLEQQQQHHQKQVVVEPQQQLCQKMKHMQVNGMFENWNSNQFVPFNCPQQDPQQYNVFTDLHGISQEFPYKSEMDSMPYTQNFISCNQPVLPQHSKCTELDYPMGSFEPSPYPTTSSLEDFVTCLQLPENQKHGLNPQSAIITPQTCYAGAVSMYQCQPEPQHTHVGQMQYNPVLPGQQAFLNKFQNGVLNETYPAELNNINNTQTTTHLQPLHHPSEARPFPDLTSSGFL
In words: AhR DRE-luciferase reporter transcriptional assay, antagonist mode (TCDD-induced). It is filed as cell-based. Conditions: HEPG2 DRE-Luc cells, 3 nM TCDD, 24 hour incubation, relative IC50. How it is done:
HEPG2 and HEPA1C1C7 cells were maintained in MEM and αMEM without nucleosides supplemented with 10% heat inactivated FBS respectively. Stably integrated DRE-luciferase cell lines were generated by transducing the both cell lines with Cignal XRE luciferase reporter (Qiagen) lentiviral particles according to the manufacturer protocol. For both cell lines stably integrated reporter cell lines were selected for the presence of 2 µg/mL puromycin. Following selection of stably integrated cell line pools, clonal cell lines were isolated by limiting dilution in 96-well plates. Transcriptional assays were performed by seeding 100 μL of cells at a density of 250,000 or 100,000 cells/mL, for HEPG2 and HEPA1C1C7 DRE-Luc cells respectively, into 96-well cell culture plates in OptiMEM supplemented with 0.5% heat inactivated FBS and allowed to attach overnight. For modulator assays, the compounds were added in a semi-log dose response using a D300e Digital Dispenser (Tecan) followed normalization with vehicle (DMSO). Immediately following compound addition 10 μL of 2,3,7,8-Tetrachlorodibenzo-p-dioxin (TCDD) was added to the cells to a final concentration of 3 nM or 0.3 nM for the HEPG2 and HEPA1C1C7 DRE-Luc cells respectively. Following 24 hour incubation the medium was removed and the cells were lysed in 25 μL of Reporter Lysis Buffer (Promega). Firefly luciferase activity was measured immediately following the addition of 50 μL Luciferase Assay Reagent (Promega). The percent maximal activity for each point was determined using the following equasion: (RLUsample-RLUvehicle−TCDD)/(RLUvehicle+TCDD RLUvehicle−TCDD)*100. The relative IC50, defined as the compound concentration required to reduce the TCDD induced response between the top and bottom plateau of each individual dose response curve by half, for each compound was determined using Prism 7 (GraphPad Software).
In general terms: In a reporter assay the amount or activity of a reporter protein is the signal.

One may read the IC50 as the concentration at which inhibition is half-maximal. In turn, `Cc1cc(-c2ncc3nc(C(F)(F)F)cc(C)c3n2)ccc1N(C)C(=O)c1ccnn1CCN1CCCC1` [Example 182, N-methyl-N-(2-methyl-4-(8-methyl-6-(trifluoromethyl)pyrido[3,2-d]pyrimidin-2-yl)phenyl)-1-(2-(pyrrolidin-1-yl)ethyl)-1H-pyrazole-5-carboxamide] registered an IC50 of less than 200 nM. The same measure for `Cc1cc(-c2ccc3c(ccn3C)n2)ccc1NC(=O)c1ccnn1C` [Example 085, 1-methyl-N-(2-methyl-4-(1-methyl-1H-pyrrolo[3,2-b]pyridin-5-yl)phenyl)-1H-pyrazole-5-carboxamide]: 1000 to 10000 nM; for `Cc1cc(-c2ccc3cc(C(F)(F)F)ccc3n2)ccc1NC(=O)C(F)(F)F` [Example 080, 2,2,2-trifluoro-N-(2-methyl-4-(6-(trifluoromethyl)quinolin-2-yl)phenyl)acetamide]: 1000 to 10000 nM.

In turn, `Cc1cc(-c2ncc3nc(C(F)(F)F)ccc3n2)c(C)cc1NC(=O)c1ccnn1C` [Example 189, N-(2,5-dimethyl-4-(6-(trifluoromethyl)pyrido[3,2-d]pyrimidin-2-yl)phenyl)-1-methyl-1H-pyrazole-5-carboxamide] came in with an IC50 of 1000 to 10000 nM. Consider `Cc1cc(-c2ccc3cc(Br)ccc3n2)ccc1NC(=O)c1ccnn1C` [Example 064, N-(4-(6-bromoquinolin-2-yl)-2-methylphenyl)-1-methyl-1H-pyrazole-5-carboxamide], for which the IC50 was in the range of 200 to 500 nM. Then `Cc1cc(-c2nc(N)c3nc(C(F)(F)F)cc(C)c3n2)ccc1NC(=O)c1ccnn1C` [Example 153, N-(4-(4-amino-8-methyl-6-(trifluoromethyl)pyrido[3,2-d]pyrimidin-2-yl)-2-methylphenyl)-1-methyl-1H-pyrazole-5-carboxamide], with less than 200 nM. Then `Cc1cc(-c2ncc3cc(C(F)(F)F)ccc3n2)ccc1NC(=O)c1ccnc(C(N)=O)c1` [Example 151, N4-(2-methyl-4-(6-(trifluoromethyl)quinazolin-2-yl)phenyl)pyridine-2,4-dicarboxamide], with less than 200 nM; and `Cc1cc(N(C)C(=O)c2ccnn2C)c(F)cc1-c1ncc2nc(C(F)(F)F)cc(C)c2n1` [Example 179, N-(2-fluoro-5-methyl-4-(8-methyl-6-(trifluoromethyl)pyrido[3,2-d]pyrimidin-2-yl)phenyl)-N,1-dimethyl-1H-pyrazole-5-carboxamide], with 200 to 500 nM; and `Cc1cc(-c2ccc3cc(F)ccc3n2)ccc1NC(=O)C1CCOCC1` [Example 025, N-(4-(6-fluoroquinolin-2-yl)-2-methylphenyl)tetrahydro-2H-pyran-4-carboxamide], with 1000 to 10000 nM. Then `Cc1cc(-c2ccc3cc(F)ccc3n2)ccc1NC(=O)c1nccn1C` [Example 033, N-(4-(6-fluoroquinolin-2-yl)-2-methylphenyl)-1-methyl-1H-imidazole-2-carboxamide], with 200 to 500 nM. With `Cc1cc(-c2ncc3cc(C(F)(F)F)ccc3n2)ccc1N(C)C(=O)c1c(C)cnn1C` [Example 217, N,1,4-trimethyl-N-(2-methyl-4-(6-(trifluoromethyl)quinazolin-2-yl)phenyl)-1H-pyrazole-5-carboxamide], the IC50 is less than 200 nM. Then `Cc1cc(-c2ncc3nc(C(F)(F)F)cc(C)c3n2)ccc1NC(=O)c1ccnc(C(N)=O)c1` [Example 166, N4-(2-methyl-4-(8-methyl-6-(trifluoromethyl)pyrido[3,2-d]pyrimidin-2-yl)phenyl)pyridine-2,4-dicarboxamide], with less than 200 nM; and `Cc1cc(-c2ccc3c(ccn3CC(F)(F)F)c2)ccc1NC(=O)c1ccnn1C` [Example 088, 1-methyl-N-(2-methyl-4-(1-(2,2,2-trifluoroethyl)-1H-indol-5-yl)phenyl)-1H-pyrazole-5-carboxamide], with 1000 to 10000 nM; and `Cc1cc(-c2ccc3ccc(C(F)(F)F)cc3n2)ccc1NC(=O)c1ccnn1C` [Example 078, 1-methyl-N-(2-methyl-4-(7-(trifluoromethyl)quinolin-2-yl)phenyl)-1H-pyrazole-5-carboxamide], with 200 to 500 nM.

Turning to `Cc1cc(-c2ccc3cccc(Cl)c3n2)ccc1NC(=O)c1ccnn1C` [Example 012, N-(4-(8-chloroquinolin-2-yl)-2-methylphenyl)-1-methyl-1H-pyrazole-5-carboxamide], the IC50 is less than 200 nM. `Cc1cc(-c2ncc3cc(C(F)(F)F)ccc3n2)ccc1N(C)C(=O)c1ncncc1C` [Example 124, N,5-dimethyl-N-(2-methyl-4-(6-(trifluoromethyl)quinazolin-2-yl)phenyl)pyrimidine-4-carboxamide] displayed an IC50 of less than 200 nM. The same measure for `Cc1nc(-c2ccc3cc(F)ccc3n2)ccc1NC(=O)c1ccnn1C` [Example 045, N-(6-(6-fluoroquinolin-2-yl)-2-methylpyridin-3-yl)-1-methyl-1H-pyrazole-5-carboxamide]: 1000 to 10000 nM. Compound `Cc1cc(-c2ncc3nc(C(F)(F)F)cc(C)c3n2)ccc1N(C)C(=O)c1cc(C(=O)O)nn1CC(N)=O` [Example 195, 1-(2-amino-2-oxoethyl)-5-(methyl(2-methyl-4-(8-methyl-6-(trifluoro-methyl)pyrido[3,2-d]pyrimidin-2-yl)phenyl)carbamoyl)-1H-pyrazole-3-carboxylic acid] showed an IC50 of 1000 to 10000 nM. `Cc1cc(-c2ccc3nncc(C)c3c2)ccc1NC(=O)c1ccnn1C` [Example 062, 1-methyl-N-(2-methyl-4-(4-methylcinnolin-6-yl)phenyl)-1H-pyrazole-5-carboxamide] displayed an IC50 of 1000 to 10000 nM. Then `Cc1cc(-c2ccc3cc(F)ccc3n2)ccc1NC(=O)c1ccno1` [Example 037, N-(4-(6-fluoroquinolin-2-yl)-2-methylphenyl)isoxazole-5-carboxamide], with 500 to 1000 nM; and `Cc1cc(-c2ccc3cc(F)cc(C4CC4)c3n2)ccc1NC(=O)c1ccnn1C` [Example 053, N-(4-(8-cyclopropyl-6-fluoroquinolin-2-yl)-2-methylphenyl)-1-methyl-1H-pyrazole-5-carboxamide], with 500 to 1000 nM.

Regarding `CN(C(=O)c1ccnn1C)c1ccc(-c2ncc3nc(C(F)(F)F)ccc3n2)cc1F` [Example 138, N-(2-fluoro-4-(6-(trifluoromethyl)pyrido[3,2-d]pyrimidin-2-yl)phenyl)-N,1-dimethyl-1H-pyrazole-5-carboxamide], the IC50 is less than 200 nM. `Cc1cc(-c2ccc3cc(F)ccc3n2)ccc1NC(=O)c1ccncc1` [Example 028, N-(4-(6-fluoroquinolin-2-yl)-2-methylphenyl)isonicotinamide] displayed an IC50 of 500 to 1000 nM. Then `Cc1cc(-c2ccc3c(ccn3C)c2)ccc1NC(=O)c1ccnn1C` [Example 083, 1-methyl-N-(2-methyl-4-(1-methyl-1H-indol-5-yl)phenyl)-1H-pyrazole-5-carboxamide], with 500 to 1000 nM; and `Cc1cc(-c2ccc3cc(F)ccc3n2)ccc1NC(=O)c1cncn1C` [Example 034, N-(4-(6-fluoroquinolin-2-yl)-2-methylphenyl)-1-methyl-1H-imidazole-5-carboxamide], with 500 to 1000 nM; and `Cc1cc(-c2ccc3ccc(F)cc3n2)ccc1NC(=O)c1ccnn1C` [Example 019, N-(4-(7-fluoroquinolin-2-yl)-2-methylphenyl)-1-methyl-1H-pyrazole-5-carboxamide], with 200 to 500 nM.
